# Measurements from patent publication US8114862B2, “TGR5 modulators and methods of use thereof” (Intercept Pharmaceuticals, Inc., priority 2008, dated 2012).
# Read-outs that look alike come from different tables or passages of the source. Marks after values point to notes of the source that are not given here.
# Tests used:
# in vitro [1] = conditions: human, s9
# [2] = Choleretic effect (bile flow) in bile fistula rat, id and iv infusion; assay type: in vivo; conditions: for SV0: maximum bile secretion rate: 1 (μmol/min)/kg bw over 1 h
# diet-induced obese mice = conditions: 0.5% w/w in diet; cited from earlier work
# LXRα = target: T1, LXRα (Homo sapiens, UniProt Q13133); experiment: LXR coactivator recruitment (alphascreen); assay type: biochemical
# T1 sequence (Q13133 1-447): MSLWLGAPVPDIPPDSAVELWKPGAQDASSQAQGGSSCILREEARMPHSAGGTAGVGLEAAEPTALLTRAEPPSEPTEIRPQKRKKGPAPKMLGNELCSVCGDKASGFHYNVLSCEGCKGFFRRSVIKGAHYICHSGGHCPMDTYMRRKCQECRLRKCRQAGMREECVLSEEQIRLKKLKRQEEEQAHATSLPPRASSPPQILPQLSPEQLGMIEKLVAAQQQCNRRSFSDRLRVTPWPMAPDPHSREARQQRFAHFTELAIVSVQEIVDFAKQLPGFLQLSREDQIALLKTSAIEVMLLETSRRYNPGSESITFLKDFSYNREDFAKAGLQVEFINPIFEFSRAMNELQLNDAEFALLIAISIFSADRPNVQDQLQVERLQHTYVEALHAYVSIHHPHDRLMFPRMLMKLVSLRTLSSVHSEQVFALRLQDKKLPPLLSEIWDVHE
# FXR = target: T2, FXR (Homo sapiens, UniProt Q96RI1); experiment: Alphascreen coactivator recruitment assay; assay type: biochemical; set-up: 10 nM of purified GST-tagged FXR-LBD protein; conditions: Table 8
# T2 sequence (Q96RI1 262-486 limits assumed): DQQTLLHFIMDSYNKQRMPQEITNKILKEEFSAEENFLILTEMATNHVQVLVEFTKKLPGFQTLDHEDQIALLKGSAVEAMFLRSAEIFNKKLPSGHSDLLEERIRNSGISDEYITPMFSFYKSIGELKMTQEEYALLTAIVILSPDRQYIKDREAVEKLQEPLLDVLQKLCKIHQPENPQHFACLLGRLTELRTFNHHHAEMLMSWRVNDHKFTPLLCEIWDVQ
# intestinal bacteria = experiment: Metabolic stability in human stool culture (7α-dehydroxylation); assay type: in vitro ADME
# Protocol: Homogenized fresh human stools (500 mg) were transferred into sterile vials to which 5 mL of sterilized chopped meat-glucose medium (Scott Lab., Fiskville, R.I.) was added. BA was then added at a final concentration of 0.05 mM. […] The samples were centrifuged at 3500 rpm for 10 min; from the supernatant the BA were isolated by C-18 solid-phase extraction and analyzed by TLC and HPLC-ES-MS/MS.
# Thin-layer chromatography (TLC), utilizing silica gel 0.25 mm thickness plates (Merck, Darmstat, Germany), was employed as the first screening test. The solvent system used for the separation of conjugated BA was composed of propionic acid/isoamyl acetate/water/N-propanol (3:4:1:2, v/v/v/v; solvent I), and that of the unconjugated BA was acetic acid/carbon tetrachloride/isopropyl ether/isoamyl acetate/water/N-propanol/benzene (1:4:6:8:2:2, v/v/v/v/v/v; solvent II).
# [3] = Critical micellar concentration by surface tension; assay type: physicochemical; conditions: […] NaCl water solution
# Protocol: The critical micellar concentration (CMC) was determined by surface tension (ST) measurements using a maximum bubble-pressure method which give surface tension values […] by potential impurities like static methods are. The tensiometer was a […] Research Corp., Milwaukee, Wis.) equipped with two glass probes of 0.5 and 4.0 mm diameters connected to a source of nitrogen. […] The surface tension values were plotted against the logarithm of the bile salt concentration; the regression lines corresponding to the two parts of the curve (monomeric and micellar phases) were calculated using the method of least squares, and the intersection of the lines was taken as the CMC value. From the ST vs concentration curves the value of the surface tension at the CMC (equilibrium between monomers and multimers species) was also calculated giving information about the detergency power which is related to the size of the micelles with associate surface tension lowering capacity. The CMC was evaluated by surface tension measurements in non equilibrium conditions i.e. in conditions that impurities slightly affect the surface tension results (FIG. 10).
# bovine serum albumin [4] = target: T3, bovine serum albumin (Bos taurus, UniProt P02769); experiment: Albumin binding by equilibrium dialysis; assay type: in vitro ADME; conditions: 100 μM BA in 5% bovine serum albumin-saline, pH 7.2
# Protocol: The extent of albumin binding was evaluated by equilibrium dialysis at a fixed BA-albumin ratio. BA was dissolved at a concentration of 100 μM in 5% bovine serum albumin-saline solution (pH 7.2) and left to stand for 24 h at 25° C. Two milliliters of this solution was dialyzed in cellulose sacs having a molecular weight cut-off of 12-14,000 against 25 ml of saline solution. The system was equilibrated by mechanical gently shaking for 72 h at 25° C. BA concentrations of the dialyzed solution (corresponding to the free unbound fraction) and of the starting solution were determined with HPLC-ESI-MS/MS in the same conditions of the previous analysis.
# The percent of albumin binding was calculate from the initial BA concentration and from the unbound concentration in the dialyzed fraction.
# TGR5 = target: T4, TGR5 (Homo sapiens, UniProt Q8TDU6); experiment: TGR5 receptor in vitro assay (Table 1); assay type: cell-based
# T4 sequence (Q8TDU6 1-330): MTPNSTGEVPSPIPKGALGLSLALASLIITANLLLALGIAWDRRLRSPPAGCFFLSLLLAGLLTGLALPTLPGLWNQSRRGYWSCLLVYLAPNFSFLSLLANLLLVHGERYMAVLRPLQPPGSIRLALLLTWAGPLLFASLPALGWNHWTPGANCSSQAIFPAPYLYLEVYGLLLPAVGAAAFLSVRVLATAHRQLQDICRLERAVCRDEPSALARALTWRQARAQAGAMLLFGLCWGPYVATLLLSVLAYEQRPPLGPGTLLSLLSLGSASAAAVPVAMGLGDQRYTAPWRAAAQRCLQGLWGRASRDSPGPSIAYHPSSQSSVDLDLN
# [5] = Biliary secretion and metabolism in bile fistula rat, id and iv infusion; conditions: rat, bile, 1 μmol/kg/min
# HepG2 cells [6] = experiment: cells; conditions: Homo sapiens, HepG2, 4 h, read-out: NECROSIS LDH release EC50
# PPARδ = target: T5, PPARδ (Homo sapiens, UniProt Q03181); experiment: PPARδ coactivator recruitment assay
# T5 sequence (Q03181 211-439 limits assumed): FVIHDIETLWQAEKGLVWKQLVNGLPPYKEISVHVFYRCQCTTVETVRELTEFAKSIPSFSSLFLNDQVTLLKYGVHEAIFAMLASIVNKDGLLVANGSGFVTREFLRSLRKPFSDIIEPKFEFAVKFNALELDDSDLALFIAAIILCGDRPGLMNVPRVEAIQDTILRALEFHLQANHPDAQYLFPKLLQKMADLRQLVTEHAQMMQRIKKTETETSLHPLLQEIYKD
# HepG2 cells [7] = experiment: cells; conditions: Homo sapiens, HepG2, 4 h, read-out: APOPTOSIS Caspase-3 activation EC50
# VDR = target: T6, VDR (Homo sapiens, UniProt P11473); experiment: VDR coactivator recruitment assay
# T6 sequence (P11473 127-423 limits assumed): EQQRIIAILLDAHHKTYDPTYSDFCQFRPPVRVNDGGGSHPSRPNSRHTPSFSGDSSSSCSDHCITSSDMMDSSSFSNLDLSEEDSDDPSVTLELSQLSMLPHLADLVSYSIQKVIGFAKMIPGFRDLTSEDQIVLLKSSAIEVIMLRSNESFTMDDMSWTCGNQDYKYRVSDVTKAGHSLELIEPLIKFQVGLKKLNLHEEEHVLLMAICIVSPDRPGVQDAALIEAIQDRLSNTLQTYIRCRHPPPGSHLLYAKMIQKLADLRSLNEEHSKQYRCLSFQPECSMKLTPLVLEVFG
# CAR = target: T7, CAR (Homo sapiens, UniProt Q14994); experiment: CAR coactivator recruitment (Lanthascreen); assay type: biochemical
# T7 construct: purchased Invitrogen
# T7 sequence (Q14994 109-352 limits assumed): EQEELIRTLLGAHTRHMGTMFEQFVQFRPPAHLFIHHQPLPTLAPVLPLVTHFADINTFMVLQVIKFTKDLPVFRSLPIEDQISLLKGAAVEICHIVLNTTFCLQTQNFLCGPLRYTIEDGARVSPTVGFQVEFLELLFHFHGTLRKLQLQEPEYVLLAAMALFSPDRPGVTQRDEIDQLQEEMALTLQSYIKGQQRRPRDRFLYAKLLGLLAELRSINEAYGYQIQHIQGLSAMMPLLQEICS
# Protocol: CAR: Coactivator Recruitment (Lanthascreen)
# Lanthascreen assay (Invitrogen) was used for nulear receptor selectivity assay. The kit uses a terbium-labeled anti-GST antibody, a fluorescein-labeled coactivator peptide, and a NR ligand-binding domain that is tagged with glutathione-S-transferase (GST) in a homogenous mix-and-read assay format. […] Following 1 hour incubation in the dark, TR-FRET measurements were made in the Envision. […] The data was analyzed using GraphPad Prism using the sigmoidal curve equation with variable slope to obtain EC50 values.
# [8] = Octanol/water partition coefficient (shake-flask); assay type: physicochemical; conditions: pH 8
# [9] = values from literature; cited from earlier work
# [10] = values from literature; cited from earlier work; remark: listed apart in the source
# [11] = values from literature; cited from earlier work; remark: listed apart in the source
# bovine serum albumin [12] = target: T3, bovine serum albumin; conditions: values from literature; cited from earlier work
# in vitro [13] = conditions: human, HepG2 cells
# wild-type mice = experiment: Locomotor activity of wild-type mice given Ex-4; assay type: in vivo, mouse
# Text: To further evaluate the metabolic role of enhanced TGR5 signaling, we assessed the impact of transgenic overexpression of TGR5 in vivo in the context of DIO in mice. TGR5 transgenic mice (TGR5-Tg) were generated by oocyte injection of the bacterial artificial chromosome (BAC) RP23-278N1. […] The absence of weight gain in TGR5-Tg mice, in the wake of an increase in energy expenditure, was explained by a reduction of locomotor activity. Since GLP-1 receptor knockout mice display a marked hyperactivity (Hansotia et al., 2007, J. Clin. Invest. 117, 143-152), we administered the GLP-1 receptor agonist Ex-4 to wild-type mice in order to assess whether the decrease in locomotor activity in TGR5-Tg mice could be linked to GLP-1 secretion.
# T3 sequence (P02769 25-607): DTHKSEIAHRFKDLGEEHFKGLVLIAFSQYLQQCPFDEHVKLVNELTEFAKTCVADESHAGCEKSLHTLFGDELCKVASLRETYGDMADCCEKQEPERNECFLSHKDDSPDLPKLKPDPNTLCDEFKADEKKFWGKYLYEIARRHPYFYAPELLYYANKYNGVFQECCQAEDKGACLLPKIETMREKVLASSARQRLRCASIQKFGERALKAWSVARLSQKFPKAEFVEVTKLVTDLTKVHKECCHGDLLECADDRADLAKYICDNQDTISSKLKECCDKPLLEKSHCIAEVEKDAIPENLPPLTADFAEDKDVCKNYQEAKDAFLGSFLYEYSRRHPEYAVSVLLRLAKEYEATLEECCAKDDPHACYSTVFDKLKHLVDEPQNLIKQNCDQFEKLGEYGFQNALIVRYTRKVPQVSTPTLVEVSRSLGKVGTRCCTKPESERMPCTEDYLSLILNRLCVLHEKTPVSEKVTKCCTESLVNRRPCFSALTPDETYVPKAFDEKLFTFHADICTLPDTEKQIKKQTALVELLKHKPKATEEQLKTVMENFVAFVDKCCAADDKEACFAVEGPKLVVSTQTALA
compound,measurement,setting,value
"O=c1ccc2ccc(O)cc2o1 [7-Hydroxy Coumarine, reference compound]",half-life,in vitro [1],8.5 min
"C[C@H](CCC(=O)O)[C@H]1CC[C@H]2[C@@H]3[C@H](O)C[C@@H]4C[C@H](O)CC[C@]4(C)[C@H]3C[C@H](O)[C@]12C [CA, cholic acid]",SV0: maximum bile secretion rate,[2]; id infusion,64 ± 6 (μL/min)/kg bw
same,SV0: maximum bile secretion rate,[2]; iv infusion,(78 ± 8) (μL/min)/kg bw
same,prevention and treatment of metabolic syndrome,diet-induced obese mice,efficiently prevents and treats metabolic syndrome
same,LXRα Activation EC50,LXRα,No activity
same,FXR Activation EC50,FXR,No activity
"C[C@H](CCC(=O)O)[C@H]1CC[C@H]2[C@@H]3[C@H](O)C[C@@H]4C[C@H](O)CC[C@]4(C)[C@H]3CC[C@]12C [CDCA, ChenoDeoxyCholicAcid]",maximum bile flow rate,"[2]; duodenal infusion 1 μmol/kg/min, 1 hour",≤ 4.8 mL/h/kg
same,SV0: maximum bile secretion rate,[2]; id infusion,57 ± 7 (μL/min)/kg bw
same,SV0: maximum bile secretion rate,[2]; iv infusion,(51 ± 9) (μL/min)/kg bw
same,metabolism (7-dehydroxylation) to lithocholic acid,intestinal bacteria,almost completely metabolized
same,half-life time,intestinal bacteria; human,almost one hour
same,CMC […] Na+,[3],3.2 mM
same,STCMC (surface tension at CMC),[3],45.5 Dyne/cm
same,Albumin Binding,bovine serum albumin [4],93%
same,TGR5 Data Efficacy,TGR5,100%
same,fraction unbound at 4 h,[5]; iv,0.04
same,fraction unbound at 4 h,[5]; other: duodenal infusion (id),0.03 ± 0.01
same,LXRα Activation EC50,LXRα,No activity
same,EC50,HepG2 cells [6],> 1000 µM
same,PPARδ Activation EC50,PPARδ,No activity
same,EC50,HepG2 cells [7],890 µM
same,VDR Activation EC50,VDR,No activity
same,EC50,CAR; read-out: CAR Activation EC50,> 250 µM
same,"LogPA- (1-octanol-water partition coefficient, ionized species)",[8],2.2
C[C@H](CCC(=O)O)[C@H]1CCC2C3C(CC[C@@]21C)[C@@]1(C)CC[C@@H](O)CC1[C@@H](C)[C@@H]3O (stereo partly shown) [Compound 6MUDCA],CMC […] Na+,[9],4.2* mM
same,"Ws (water solubility, protonated species)",[10],28* μM
same,"LogPA- (1-octanol-water partition coefficient, ionized species)",[11],1.3*
same,Albumin Binding,bovine serum albumin [12],80* %
"C[C@H](CCC(=O)O)[C@H]1CC[C@H]2[C@@H]3CC[C@@H]4C[C@H](O)CC[C@]4(C)[C@H]3CC[C@]12C [LCA, lithocholic acid]",EC50 at 4 h,in vitro [13],84 µM
same,LXRα Activation EC50,LXRα,No activity
same,EC50,HepG2 cells [6],105 µM
same,FXR Activation EC50,FXR,No activity
same,PPARδ Activation EC50,PPARδ,No activity
same,EC50,HepG2 cells [7],65 µM
same,VDR Activation EC50,VDR,No activity
same,CAR Activation EC50,CAR,No activity
Ex-4: the GLP-1 receptor agonist Ex-4,locomotor activity,wild-type mice,efficiently and dose-dependently reduced locomotor activity
